Data taken from patent US8952024B2, “Herbicidal pyrimidone derivatives” (E I du Pont de Nemours and Company, priority 2009, dated 2015).

Key:
Format in all cases: in vivo
rice (Oryza sativa) = test: Test B flooded paddy test; settings: for Plant response rating, Flood, Rice: 250 g ai/ha, flooded paddy test, visual rating on 0 to 100 scale (0 no effect, 100 complete control) after 13 to 15 days; for Plant response rating, Rice: Flood (flooded paddy test), 13 to 15 days; for Rice plant response rating: Flood, 31 g ai/ha, scale 0 to 100 (0 no effect, 100 complete control)
Method in brief: (§1)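 Flooded-pot test: water raised to 3 cm above soil when treating, compound put in the water, level unchanged thereafter. Plants were at 2 leaves. Readout after 13 to 15 days, visual, relative to controls; 0 signifies no effect and 100 complete control.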

[1] = system: barnyardgrass (Echinochloa crus-galli); test: Test B flooded paddy test; settings: for Plant response rating, Flood, Barnyardgrass: 250 g ai/ha, flooded paddy test, visual rating on 0 to 100 scale (0 no effect, 100 complete control) after 13 to 15 days; for Plant response rating, Barnyardgrass: Flood (flooded paddy test), 13 to 15 days; for Barnyardgrass plant response rating: Flood, 31 g ai/ha, scale 0 to 100 (0 no effect, 100 complete control)
Method in brief: as §1

[2] = system: umbrella sedge (Cyperus difformis); test: Test B flooded paddy test; settings: for Plant response rating, Flood, Sedge, Umbrella: 250 g ai/ha, flooded paddy test, visual rating on 0 to 100 scale (0 no effect, 100 complete control) after 13 to 15 days; for Plant response rating, Sedge, Umbrella: Flood (flooded paddy test), 13 to 15 days; for Sedge, Umbrella plant response rating: Flood, 31 g ai/ha, scale 0 to 100 (0 no effect, 100 complete control)
Method in brief: as §1

[3] = system: ducksalad (Heteranthera limosa); test: Test B flooded paddy test; settings: for Plant response rating, Flood, Ducksalad: 250 g ai/ha, flooded paddy test, visual rating on 0 to 100 scale (0 no effect, 100 complete control) after 13 to 15 days; for Plant response rating, Ducksalad: Flood (flooded paddy test), 13 to 15 days; for Ducksalad plant response rating: Flood, 31 g ai/ha, scale 0 to 100 (0 no effect, 100 complete control)
Method in brief: as §1

[4] = system: wheat (Triticum aestivum); test: Test B pre-/postemergence plant response; settings: for Wheat plant response rating (0 to 100 scale): 0 is no effect, 13 to 15 days
Method in brief: (§2)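 Visually scored on a 0 to 100 scale after 13 to 15 days in greenhouse versus controls. Treatments were preemergence on seeded loam/sand soil and postemergence on 1- to 4-leaf plants.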

[5] = system: giant foxtail (Setaria faberii); test: Test B pre-/postemergence plant response; settings: for Foxtail, Giant plant response rating (0 to 100 scale): 0 is no effect, 13 to 15 days
Method in brief: as §2

[6] = system: woolly cupgrass (Eriochloa villosa); test: Test B pre-/postemergence plant response; settings: for Cupgrass, Woolly plant response rating (0 to 100 scale): 0 is no effect, 13 to 15 days
Method in brief: as §2

[7] = system: goosegrass (Eleusine indica); test: Test B pre-/postemergence plant response; settings: for Goosegrass plant response rating (0 to 100 scale): 0 is no effect, 13 to 15 days
Method in brief: as §2

[8] = system: morningglory (Ipomoea coccinea); test: Test B pre-/postemergence plant response; settings: for Morningglory plant response rating (0 to 100 scale): 0 is no effect, 13 to 15 days
Method in brief: as §2

[9] = system: johnsongrass (Sorghum halepense); test: Test B pre-/postemergence plant response; settings: for Johnsongrass plant response rating (0 to 100 scale): 0 is no effect, 13 to 15 days
Method in brief: as §2

[10] = system: morningglory (Ipomoea spp.); test: Test A pre-/postemergence plant response
Method in brief: (§3)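 Pre: directed soil spray on seeded loam/sand blend. Post: same formulation (non-phytotoxic solvent + surfactant) on 2–10 cm plants, 1–2 leaf stage. Greenhouse ~10 d; visual injury score 0–100 vs untreated.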

[11] = system: pigweed (Amaranthus retroflexus); test: Test A pre-/postemergence plant response
Method in brief: as §3

[12] = 62 g ai/ha, scale of 0 to 100 where 0 is no effect and 100 is complete control
[13] = 125 g ai/ha, scale 0 to 100, 0 is no effect, 100 is complete control
[14] = 16 g ai/ha, Postemergence, 0 to 100 scale
[15] = 31 g ai/ha, postemergence, scale 0 to 100, 0 is no effect, 100 is complete control
[16] = 62 g ai/ha, postemergence, 100 is complete control
[17] = Postemergence, 125 g ai/ha, visual rating after 13 to 15 days, scale 0 (no effect) to 100 (complete control)
[18] = Preemergence, 31 g ai/ha, scale 0 to 100 (0 no effect, 100 complete control)
[19] = Preemergence, 62 g ai/ha, scale 0 to 100, 0 no effect, 100 complete control
[20] = Preemergence, 125 g ai/ha, scale 0 to 100, 0 no effect, 100 complete control
[21] = Preemergence, 16 g ai/ha, scale 0 to 100, 0 no effect, 100 complete control
[22] = Postemergence, 125 g ai/ha, visual injury, 0 to 100 scale (0 no effect, 100 complete control), approx. ten days
[23] = Postemergence, 500 g ai/ha, 0 to 100 scale, 0 = no effect, 100 = complete control, approx. ten days
[24] = Preemergence, 125 g ai/ha, 0 to 100 scale, 0 = no effect, 100 = complete control
[25] = Preemergence, 500 g ai/ha, visual injury, 0 to 100 scale (0 no effect, 100 complete control), approx. ten days
[26] = Postemergence, 250 g ai/ha, scale 0 to 100 (0 no effect, 100 complete control)

For O=C1CCCC(O)=C1C(=O)c1cnc(-c2cccc(Br)c2)n(-c2ccccc2)c1=O [Compound 69], the “Plant response rating, Flood, Rice” value (rice (Oryza sativa)) was 0, the “Plant response rating, Rice” value (rice (Oryza sativa); [12]) was 0 and the “Plant response rating, Rice” value (rice (Oryza sativa); [13]) was 0. For the same compound, the “Rice plant response rating” value (rice (Oryza sativa)) was 0, the “Plant response rating, Flood, Barnyardgrass” value [1] was 30 and the “Plant response rating, Barnyardgrass” value [1, 12] was 0. The “Plant response rating, Barnyardgrass” value [1, 13] was 20, the “Barnyardgrass plant response rating” value [1] was 0 and the “Plant response rating, Flood, Sedge, Umbrella” value [2] was 40. The “Plant response rating, Sedge, Umbrella” value [2, 12] was 0, the “Plant response rating, Sedge, Umbrella” value [2, 13] was 0 and the “Sedge, Umbrella plant response rating” value [2] was 0. For the same compound, the “Plant response rating, Flood, Ducksalad” value [3] was 20, the “Plant response rating, Ducksalad” value [3, 12] was 0 and the “Plant response rating, Ducksalad” value [3, 13] was 0. The “Ducksalad plant response rating” value [3] was 0, the “Plant response rating, Wheat” value [4, 14] was 0 and the “Plant response rating, Wheat” value [4, 15] was 5. The “Wheat plant response rating (0 to 100 scale)” value [4, 16] was 5, the “Plant response rating, Wheat” value [4, 17] was 10 and the “Plant response rating, Wheat” value [4, 18] was 0. The “Plant response rating, Wheat” value [4, 19] was 0, the “Plant response rating, Wheat” value [4, 20] was 0 and the “Plant response rating, Foxtail, Giant” value [5, 14] was 80. For the same compound, the “Plant response rating, Foxtail, Giant” value [5, 15] was 95, the “Foxtail, Giant plant response rating (0 to 100 scale)” value [5, 16] was 98 and the “Plant response rating, Foxtail, Giant” value [5, 17] was 98. For the same compound, the “Plant response rating, Foxtail, Giant” value [5, 21] was 0, the “Plant response rating, Foxtail, Giant” value [5, 18] was 5 and the “Plant response rating, Foxtail, Giant” value [5, 19] was 75. For the same compound, the “Plant response rating, Foxtail, Giant” value [5, 20] was 90, the “Plant response rating, Cupgrass, Woolly” value [6, 14] was 75 and the “Plant response rating, Cupgrass, Woolly” value [6, 15] was 90. The “Cupgrass, Woolly plant response rating (0 to 100 scale)” value [6, 16] was 95, the “Plant response rating, Cupgrass, Woolly” value [6, 17] was 95 and the “Plant response rating, Cupgrass, Woolly” value [6, 21] was 0. The “Plant response rating, Cupgrass, Woolly” value [6, 18] was 0, the “Plant response rating, Cupgrass, Woolly” value [6, 19] was 0 and the “Plant response rating, Cupgrass, Woolly” value [6, 20] was 45. The “Plant response rating, Goosegrass” value [7, 14] was 75, the “Plant response rating, Goosegrass” value [7, 15] was 75 and the “Goosegrass plant response rating (0 to 100 scale)” value [7, 16] was 80. The “Plant response rating, Goosegrass” value [7, 17] was 85, the “Plant response rating, Goosegrass” value [7, 21] was 55 and the “Plant response rating, Goosegrass” value [7, 18] was 95. For the same compound, the “Plant response rating, Goosegrass” value [7, 19] was 100, the “Plant response rating, Goosegrass” value [7, 20] was 100 and the “Plant response rating, Morningglory” value [8, 14] was 65. The “Plant response rating, Morningglory” value [8, 15] was 70, the “Morningglory plant response rating (0 to 100 scale)” value [8, 16] was 70 and the “Plant response rating, Morningglory” value [8, 17] was 75. For the same compound, the “Plant response rating, Morningglory” value [8, 21] was 0, the “Plant response rating, Morningglory” value [8, 18] was 0 and the “Plant response rating, Morningglory” value [8, 19] was 0. For the same compound, the “Plant response rating, Morningglory” value [8, 20] was 0, the “Plant response rating, Johnsongrass” value [9, 14] was 75 and the “Plant response rating, Johnsongrass” value [9, 15] was 98. For the same compound, the “Johnsongrass plant response rating (0 to 100 scale)” value [9, 16] was 100, the “Plant response rating, Johnsongrass” value [9, 17] was 100 and the “Plant response rating, Johnsongrass” value [9, 21] was 0. The “Plant response rating, Johnsongrass” value [9, 18] was 5, the “Plant response rating, Johnsongrass” value [9, 19] was 45 and the “Plant response rating, Johnsongrass” value [9, 20] was 85. The “Morningglory plant response rating” value [10, 22] was 100, the “Plant response rating, Morningglory” value [10, 23] was 100 and the “Plant response rating, Morningglory” value [10, 24] was 0. For the same compound, the “Plant response rating, Morningglory” value [10, 25] was 50, the “Pigweed plant response rating” value [11, 22] was 100 and the “Plant response rating, Pigweed” value [11, 23] was 100. The “Plant response rating, Pigweed” value [11, 24] was 100 and the “Plant response rating, Pigweed” value [11, 25] was 100.

With O=C1CCCC(O)=C1C(=O)c1cnc(-c2ccc(Br)cc2)n(-c2ccccc2)c1=O [Compound 70] the “Plant response rating, Flood, Rice” value (rice (Oryza sativa)) was 20, the “Plant response rating, Rice” value (rice (Oryza sativa); [12]) was 0 and the “Plant response rating, Rice” value (rice (Oryza sativa); [13]) was 0. The “Rice plant response rating” value (rice (Oryza sativa)) was 0, the “Plant response rating, Flood, Barnyardgrass” value [1] was 20 and the “Plant response rating, Barnyardgrass” value [1, 12] was 0. For the same compound, the “Plant response rating, Barnyardgrass” value [1, 13] was 0, the “Barnyardgrass plant response rating” value [1] was 0 and the “Plant response rating, Flood, Sedge, Umbrella” value [2] was 20. For the same compound, the “Plant response rating, Sedge, Umbrella” value [2, 12] was 0, the “Plant response rating, Sedge, Umbrella” value [2, 13] was 20 and the “Sedge, Umbrella plant response rating” value [2] was 0. For the same compound, the “Plant response rating, Flood, Ducksalad” value [3] was 0, the “Plant response rating, Ducksalad” value [3, 12] was 0 and the “Plant response rating, Ducksalad” value [3, 13] was 0. For the same compound, the “Ducksalad plant response rating” value [3] was 0, the “Plant response rating, Wheat” value [4, 15] was 5 and the “Wheat plant response rating (0 to 100 scale)” value [4, 16] was 20. For the same compound, the “Plant response rating, Wheat” value [4, 17] was 35, the “Plant response rating, Wheat” value [4, 26] was 35 and the “Plant response rating, Foxtail, Giant” value [5, 15] was 75. For the same compound, the “Foxtail, Giant plant response rating (0 to 100 scale)” value [5, 16] was 85, the “Plant response rating, Foxtail, Giant” value [5, 17] was 95 and the “Plant response rating, Foxtail, Giant” value [5, 26] was 98. For the same compound, the “Plant response rating, Cupgrass, Woolly” value [6, 15] was 45, the “Cupgrass, Woolly plant response rating (0 to 100 scale)” value [6, 16] was 65 and the “Plant response rating, Cupgrass, Woolly” value [6, 17] was 90. For the same compound, the “Plant response rating, Cupgrass, Woolly” value [6, 26] was 90, the “Plant response rating, Goosegrass” value [7, 15] was 75 and the “Goosegrass plant response rating (0 to 100 scale)” value [7, 16] was 85. The “Plant response rating, Goosegrass” value [7, 17] was 85, the “Plant response rating, Goosegrass” value [7, 26] was 95 and the “Plant response rating, Morningglory” value [8, 15] was 98. For the same compound, the “Morningglory plant response rating (0 to 100 scale)” value [8, 16] was 100, the “Plant response rating, Morningglory” value [8, 17] was 100 and the “Plant response rating, Morningglory” value [8, 26] was 100. For the same compound, the “Plant response rating, Johnsongrass” value [9, 15] was 65, the “Johnsongrass plant response rating (0 to 100 scale)” value [9, 16] was 70 and the “Plant response rating, Johnsongrass” value [9, 17] was 80. The “Plant response rating, Johnsongrass” value [9, 26] was 98, the “Morningglory plant response rating” value [10, 22] was 100 and the “Plant response rating, Morningglory” value [10, 23] was 100. For the same compound, the “Plant response rating, Morningglory” value [10, 24] was 0, the “Plant response rating, Morningglory” value [10, 25] was 10 and the “Pigweed plant response rating” value [11, 22] was 100. For the same compound, the “Plant response rating, Pigweed” value [11, 23] was 100, the “Plant response rating, Pigweed” value [11, 24] was 60 and the “Plant response rating, Pigweed” value [11, 25] was 100.
